Source: ChEMBL document CHEMBL1255278, “Caspofungin prolongs survival of transiently neutropenic rats with advanced-stage invasive pulmonary aspergillosis” (Antimicrob Agents Chemother, 2008)
In brackets after ≈: the same amount, converted by molar mass.

Assays:
[1] = test system: Rattus norvegicus; test: Hepatotoxicity in neutropenic rat assessed as ASAT level in serum at 4 mg/kg/day, ip administered 72 hrs post infection for 10 days measured on day 13 after infection (Rvb=46.6+/-6.1 U/l); format: toxicity, organism-based; set-up: route intraperitoneal; conditions: in vivo
[2] = test system: Aspergillus fumigatus; test: Antifungal activity against Aspergillus fumigatus by Etest method; format: functional
[3] = test system: Rattus norvegicus; test: Hepatotoxicity in neutropenic rat assessed as ASAT level in serum at 10 mg/kg/day, ip administered 72 hrs post infection for 3 days followed by 4 mg/kg/day, ip for 7 days measured on day 6 after infection (Rvb=51.2+/-9.4 U/l); format: toxicity, organism-based; conditions: in vivo
[4] = test system: Rattus norvegicus; test: Hepatotoxicity in neutropenic rat assessed as ALAT level in serum at 10 mg/kg/day, ip administered 72 hrs post infection for 3 days followed by 4 mg/kg/day, ip for 7 days measured on day 13 after infection (Rvb=51.3+/-5.2 U/l); format: toxicity, organism-based; conditions: in vivo
[5] = test system: Aspergillus fumigatus; test: Antifungal activity against Aspergillus fumigatus by CLSI method; format: functional
[6] = test system: Rattus norvegicus; test: Hepatotoxicity in neutropenic rat assessed as ALAT level in serum at 10 mg/kg/day, ip administered 72 hrs post infection for 10 days measured on day 13 after infection (Rvb=51.3+/-5.2 U/l); format: toxicity, organism-based; set-up: route intraperitoneal; conditions: in vivo
[7] = test system: Rattus norvegicus; test: Hepatotoxicity in neutropenic rat assessed as ALAT level in serum at 10 mg/kg/day, ip administered 72 hrs post infection for 10 days measured on day 6 after infection (Rvb=43.9+/-7.9 U/l); format: toxicity, organism-based; set-up: route intraperitoneal; conditions: in vivo
[8] = test system: Rattus norvegicus; test: Hepatotoxicity in neutropenic rat assessed as ASAT level in serum at 10 mg/kg/day, ip administered 72 hrs post infection for 10 days measured on day 13 after infection (Rvb=46.6+/-6.1 U/l); format: toxicity, organism-based; set-up: route intraperitoneal; conditions: in vivo
[9] = test system: Rattus norvegicus; test: Hepatotoxicity in neutropenic rat assessed as ALAT level in serum at 10 mg/kg/day, ip administered 72 hrs post infection for 3 days followed by 4 mg/kg/day, ip for 7 days measured on day 6 after infection (Rvb=43.9+/-7.9 U/l); format: toxicity, organism-based; conditions: in vivo
[10] = test system: Rattus norvegicus; test: Renal toxicity in neutropenic rat assessed as blood urea nitrogen level in serum at 10 mg/kg/day, ip administered 72 hrs post infection for 3 days followed by 4 mg/kg/day, ip for 7 days measured on day 6 after infection (Rvb=4.4+/-0.5 mmol/l); format: organism-based; conditions: in vivo
[11] = test system: Rattus norvegicus; test: Hepatotoxicity in neutropenic rat assessed as ALAT level in serum at 4 mg/kg/day, ip administered 72 hrs post infection for 10 days measured on day 13 after infection (Rvb=51.3+/-5.2 U/l); format: toxicity, organism-based; set-up: route intraperitoneal; conditions: in vivo
[12] = test system: Rattus norvegicus; test: Renal toxicity in neutropenic rat assessed as […] in serum at 10 mg/kg/day, ip administered 72 hrs post infection for 10 days measured on day 6 after infection (Rvb=34.8+/-5.8 umol/l); format: organism-based; set-up: route intraperitoneal; conditions: in vivo
[13] = test system: Rattus norvegicus; test: Hepatotoxicity in neutropenic rat assessed as ASAT level in serum at 10 mg/kg/day, ip administered 72 hrs post infection for 3 days followed by 4 mg/kg/day, ip for 7 days measured on day 13 after infection (Rvb=46.6+/-6.1 U/l); format: toxicity, organism-based; conditions: in vivo
[14] = test system: Rattus norvegicus; test: Renal toxicity in neutropenic rat assessed as blood urea nitrogen level in serum at 10 mg/kg/day, ip administered 72 hrs post infection for 3 days followed by 4 mg/kg/day, ip for 7 days measured on day 13 after infection (Rvb=5.8+/-0.4 mmol/l); format: organism-based; conditions: in vivo
[15] = test system: Rattus norvegicus; test: Renal toxicity in neutropenic rat assessed as blood urea nitrogen level in serum at 4 mg/kg/day, ip administered 72 hrs post infection for 10 days measured on day 13 after infection (Rvb=5.8+/-0.4 mmol/l); format: organism-based; set-up: route intraperitoneal; conditions: in vivo
[16] = test system: Rattus norvegicus; test: Hepatotoxicity in neutropenic rat assessed as ALAT level in serum at 4 mg/kg/day, ip administered 72 hrs post infection for 10 days measured on day 6 after infection (Rvb=43.9+/-7.9 U/l); format: toxicity, organism-based; set-up: route intraperitoneal; conditions: in vivo
[17] = test system: Aspergillus fumigatus; test: Antifungal activity against Aspergillus fumigatus infected in neutropenic rat assessed as survival of rat at 4 mg/kg/day, ip administered 72 hrs post infection for 10 days; format: functional; conditions: route intraperitoneal
[18] = test system: Rattus norvegicus; test: Hepatotoxicity in neutropenic rat assessed as ASAT level in serum at 10 mg/kg/day, ip administered 72 hrs post infection for 10 days measured on day 6 after infection (Rvb=51.2+/-9.4 U/l); format: toxicity, organism-based; set-up: route intraperitoneal; conditions: in vivo
[19] = test system: Rattus norvegicus; test: Renal toxicity in neutropenic rat assessed as blood urea nitrogen level in serum at 4 mg/kg/day, ip administered 72 hrs post infection for 10 days measured on day 6 after infection (Rvb=4.4+/-0.5 mmol/l); format: organism-based; set-up: route intraperitoneal; conditions: in vivo
[20] = test system: Rattus norvegicus; test: Renal toxicity in neutropenic rat assessed as blood urea nitrogen level in serum at 10 mg/kg/day, ip administered 72 hrs post infection for 10 days measured on day 6 after infection (Rvb=4.4+/-0.5 mmol/l); format: organism-based; set-up: route intraperitoneal; conditions: in vivo
[21] = test system: Rattus norvegicus; test: Renal toxicity in neutropenic rat assessed as […] in serum at 10 mg/kg/day, ip administered 72 hrs post infection for 3 days followed by 4 mg/kg/day, ip for 7 days measured on day 13 after infection (Rvb=26.7+/-6.1 umol/l); format: organism-based; conditions: in vivo
[22] = test system: Aspergillus fumigatus; test: Antifungal activity against Aspergillus fumigatus infected in neutropenic rat assessed as survival of rat at 4 mg/kg/day, ip administered 24 hrs post infection for 10 days; format: functional; conditions: route intraperitoneal
[23] = test system: Rattus norvegicus; test: Renal toxicity in neutropenic rat assessed as creatine level in serum at 10 mg/kg/day, ip administered 72 hrs post infection for 3 days followed by 4 mg/kg/day, ip for 7 days measured on day 6 after infection (Rvb=34.8+/-5.8 umol/l); format: organism-based; conditions: in vivo
[24] = AUC in neutropenic rat at 10 mg/kg/day after 3 days; format: ADME, organism-based; conditions: plasma
[25] = test system: Aspergillus fumigatus; test: Antifungal activity against Aspergillus fumigatus infected in neutropenic rat assessed as survival of rat at 4 mg/kg/day, ip administered 16 hrs post infection for 10 days; format: functional; conditions: route intraperitoneal
[26] = AUC in neutropenic rat at 10 mg/kg/day for 3 days followed by 4 mg/kg/day for 7 days measured after 10 days; format: ADME, organism-based; conditions: plasma
[27] = test system: Aspergillus fumigatus; test: Antifungal activity against Aspergillus fumigatus infected in neutropenic rat assessed as survival of rat at 10 mg/kg/day, ip administered 72 hrs post infection for 10 days; format: functional; conditions: route intraperitoneal
[28] = test system: Rattus norvegicus; test: Renal toxicity in neutropenic rat assessed as creatine level in serum at 4 mg/kg/day, ip administered 72 hrs post infection for 10 days measured on day 13 after infection (Rvb=26.7+/-6.1 umol/l); format: organism-based; set-up: route intraperitoneal; conditions: in vivo
[29] = test system: Rattus norvegicus; test: Hepatotoxicity in neutropenic rat assessed as ASAT level in serum at 4 mg/kg/day, ip administered 72 hrs post infection for 10 days measured on day 6 after infection (Rvb=51.2+/-9.4 U/l); format: toxicity, organism-based; set-up: route intraperitoneal; conditions: in vivo
[30] = test system: Rattus norvegicus; test: Renal toxicity in neutropenic rat assessed as creatine level in serum at 10 mg/kg/day, ip administered 72 hrs post infection for 10 days measured on day 13 after infection (Rvb=26.7+/-6.1 umol/l); format: organism-based; set-up: route intraperitoneal; conditions: in vivo
[31] = test system: Rattus norvegicus; test: Renal toxicity in neutropenic rat assessed as creatine level in serum at 4 mg/kg/day, ip administered 72 hrs post infection for 10 days measured on day 6 after infection (Rvb=34.8+/-5.8 umol/l); format: organism-based; set-up: route intraperitoneal; conditions: in vivo
[32] = test system: Rattus norvegicus; test: Renal toxicity in neutropenic rat assessed as blood urea nitrogen level in serum at 10 mg/kg/day, ip administered 72 hrs post infection for 10 days measured on day 13 (Rvb=5.8+/-0.4 mmol/l); format: organism-based; set-up: route intraperitoneal; conditions: in vivo

CC[C@H](C)C[C@H](C)CCCCCCCCC(=O)N[C@H]1C[C@@H](O)[C@@H](NCCN)NC(=O)[C@@H]2[C@@H](O)CCN2C(=O)[C@H]([C@H](O)CCN)NC(=O)[C@H]([C@H](O)[C@@H](O)c2ccc(O)cc2)NC(=O)[C@@H]2C[C@@H](O)CN2C(=O)[C@H]([C@@H](C)O)NC1=O [CASPOFUNGIN]
Activity [1]: 138.4 U/L | MIC [2]: 0.05 µg/mL (≈ 0.0457 µM) | Activity [3]: 49.3 U/L | Activity [4]: 50.5 U/L | MIC [5]: 8 µg/mL (≈ 7.32 µM) | Activity [6]: 36.4 U/L | Activity [7]: 31.5 U/L | Activity [8]: 68 U/L | Activity [9]: 61.6 U/L | Activity [10]: 5.9 mmol/L | Activity [11]: 94.2 U/L | Activity [12]: 42 µmol/L | Activity [13]: 50.2 U/L | Activity [14]: 6.9 mmol/L | Activity [15]: 15.7 mmol/L | Activity [16]: 41.4 U/L | Activity [17]: 27% | Activity [18]: 113 U/L | Activity [19]: 12.2 mmol/L | Activity [20]: 10.9 mmol/L | Activity [21]: 31 µmol/L | Activity [22]: 93% | Activity [23]: 36.5 µmol/L | AUC at 72 h [24]: 549 µg·h/mL | Activity [25]: 100% | AUC at 240 h [26]: 114 µg·h/mL | Activity [27]: 67% | Activity [28]: 24 µmol/L | Activity [29]: 118 U/L | Activity [30]: 28.4 µmol/L | Activity [31]: 44.3 µmol/L | Activity [32]: 11.4 mmol/L
